Test results as given in patent publication US20240158418A1 (C4 Therapeutics, Inc., priority 2021, published 2024).
Where two headings read alike, the source gives them in different places.

What was measured:
Assay type in all cases: cell-based
EGFR L858R-T790M-C797S = molecular target: T1, EGFR L858R-T790M-C797S (Homo sapiens, UniProt P00533, C797S/L858R/T790M); assay: EGFR degradation, Total EGFR (L858R-specific) HTRF, NCI-H1975+CS; conditions: Table 9B; NCI-H1975 C797S clone, 6 hours, Total EGFR HTRF; read-out: H1975 C797S clone EGFR DC50
T1 construct: generated using CRISPR technology to introduce the additional C797S mutation by Horizon Discovery; host or cells: NCI-H1975+CS (CRISPR knock-in of C797S)
Text: (§1) NCI-H1975 (harboring EGFR heterozygous L858R-T790M mutations) and NCI-H3255 (harboring EGFR heterozygous L858R mutation) were purchased from ATCC and NCI, respectively. NCI-H1975+CS (harboring EGFR heterozygous L858R-T790M-C797S mutations) was generated using CRISPR technology to introduce the additional C797S mutation by Horizon Discovery. A431 (harboring EGFR wildtype) was purchased from ATCC. RPMI 1640 no-phenol red medium and fetal bovine serum (FBS) were purchased from Gibco (Grand Island, NY, USA). Cell culture flasks and 384-well microplates were acquired from VWR (Radnor, PA, USA). Phosphorylated (pY1068) EGFR and Total EGFR (using L858R-specific detection antibody and pan-EGFR antibody for EGFR mutant cell lines and EGFR wild-type cell lines, respectively) HTRF assay kits were purchased from Cisbio (Bedford, MA, USA).
(§2) Degradation of EGFR protein containing L858R mutation or wild-type was determined based on quantification of FRET signal using a Total EGFR (L858R-specific or pan-EGFR detecting) HTRF assay kit. Phospho-EGFR (pEGFR) inhibition was determined based on quantification of FRET signal using a pY1068 EGFR HTRF assay kit. In separate assay plates, test compounds were added to the 384-well plate from a top concentration of 10 μM with 11 points, half log titration in duplicates. For each assay, 12.5 uL of cells suspended in assay media (RPMI 1640 no-phenol red medium+10% FBS) at cell densities indicated for each cell line in Table 8 below were dispensed using a multi-channel pipette to 384-well low volume white HTRF microplates containing a duplicate concentration range of test compounds and DMSO controls. The plates were kept at 37° C. with 5% CO2 for 6 hours and then incubated with either phospho EGFR or Total EGFR HTRF detection antibodies according to the cell line and EGFR mutant being assayed. Cells treated in the absence of the test compound were the negative control. Positive control was set by wells containing all reagents but no cells. FRET signal was acquired on EnVision™ Multilabel Reader (PerkinElmer, Santa Clara, CA, USA). Compound concentration that achieves 50% degradation and inhibition was reported as DC50 and IC50, respectively.

EGFR L858R = EGFR L858R (Homo sapiens, UniProt P00533, L858R); assay: EGFR degradation, Total EGFR (L858R-specific) HTRF, NCI-H3255; set-up: NCI-H3255 (harboring EGFR heterozygous L858R mutation); host or cells: NCI-H3255; conditions: NCI-H3255 cells, 6 hours, Total EGFR HTRF, read-out: H3255 EGFR DC50
Text: as §1, §2

EGFR L858R-T790M = molecular target: T2, EGFR L858R-T790M (Homo sapiens, UniProt P00533, L858R/T790M); assay: EGFR degradation, Total EGFR (L858R-specific) HTRF, NCI-H1975; conditions: NCI-H1975 cells, 6 hours, Total EGFR HTRF, read-out: H1975 EGFR DC50
T2 construct: NCI-H1975 (harboring EGFR heterozygous L858R-T790M mutations); host or cells: NCI-H1975
How it was run: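 HTRF read-outs: pY1068 phospho-EGFR for IC50; total EGFR (pan-EGFR in A431, L858R-specific in mutant lines) for DC50. Compounds were titrated 11 points, half-log, from 10 μM in duplicate onto cells in 10% FBS RPMI, incubated 6 h at 37°C.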

T2 sequence (P00533 25-1210 T790M/L858R): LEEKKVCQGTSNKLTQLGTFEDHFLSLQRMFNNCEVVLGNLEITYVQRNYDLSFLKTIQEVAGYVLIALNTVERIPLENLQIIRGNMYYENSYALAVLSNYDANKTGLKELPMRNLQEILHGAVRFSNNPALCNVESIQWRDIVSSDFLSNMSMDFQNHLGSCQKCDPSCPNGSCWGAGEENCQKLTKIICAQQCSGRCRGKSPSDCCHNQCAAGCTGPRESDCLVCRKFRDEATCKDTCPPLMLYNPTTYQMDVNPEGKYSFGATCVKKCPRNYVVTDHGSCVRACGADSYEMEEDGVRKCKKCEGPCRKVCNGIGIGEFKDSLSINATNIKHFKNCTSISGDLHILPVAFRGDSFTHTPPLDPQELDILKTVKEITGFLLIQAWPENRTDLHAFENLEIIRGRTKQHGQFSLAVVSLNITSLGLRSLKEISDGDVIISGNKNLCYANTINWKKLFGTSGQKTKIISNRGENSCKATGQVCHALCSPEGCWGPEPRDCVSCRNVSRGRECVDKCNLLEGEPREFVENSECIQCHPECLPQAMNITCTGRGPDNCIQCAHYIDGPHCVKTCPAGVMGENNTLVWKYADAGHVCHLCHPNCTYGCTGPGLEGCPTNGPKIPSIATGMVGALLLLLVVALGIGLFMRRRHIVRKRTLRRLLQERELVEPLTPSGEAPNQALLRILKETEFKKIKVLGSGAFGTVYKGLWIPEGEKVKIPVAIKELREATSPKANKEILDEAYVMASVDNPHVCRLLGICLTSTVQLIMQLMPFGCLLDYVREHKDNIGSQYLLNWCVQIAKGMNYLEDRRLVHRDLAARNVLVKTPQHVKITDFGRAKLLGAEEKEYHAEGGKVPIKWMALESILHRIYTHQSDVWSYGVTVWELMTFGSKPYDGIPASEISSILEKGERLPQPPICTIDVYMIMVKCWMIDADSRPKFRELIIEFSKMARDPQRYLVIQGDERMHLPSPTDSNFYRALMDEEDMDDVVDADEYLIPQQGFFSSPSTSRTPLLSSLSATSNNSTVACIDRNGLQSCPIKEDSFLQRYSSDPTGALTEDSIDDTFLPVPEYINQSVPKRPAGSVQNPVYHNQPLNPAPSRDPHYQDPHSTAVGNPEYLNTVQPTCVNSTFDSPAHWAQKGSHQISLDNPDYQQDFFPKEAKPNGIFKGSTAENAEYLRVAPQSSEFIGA
EGFR L858R, sequence (P00533 25-1210 L858R): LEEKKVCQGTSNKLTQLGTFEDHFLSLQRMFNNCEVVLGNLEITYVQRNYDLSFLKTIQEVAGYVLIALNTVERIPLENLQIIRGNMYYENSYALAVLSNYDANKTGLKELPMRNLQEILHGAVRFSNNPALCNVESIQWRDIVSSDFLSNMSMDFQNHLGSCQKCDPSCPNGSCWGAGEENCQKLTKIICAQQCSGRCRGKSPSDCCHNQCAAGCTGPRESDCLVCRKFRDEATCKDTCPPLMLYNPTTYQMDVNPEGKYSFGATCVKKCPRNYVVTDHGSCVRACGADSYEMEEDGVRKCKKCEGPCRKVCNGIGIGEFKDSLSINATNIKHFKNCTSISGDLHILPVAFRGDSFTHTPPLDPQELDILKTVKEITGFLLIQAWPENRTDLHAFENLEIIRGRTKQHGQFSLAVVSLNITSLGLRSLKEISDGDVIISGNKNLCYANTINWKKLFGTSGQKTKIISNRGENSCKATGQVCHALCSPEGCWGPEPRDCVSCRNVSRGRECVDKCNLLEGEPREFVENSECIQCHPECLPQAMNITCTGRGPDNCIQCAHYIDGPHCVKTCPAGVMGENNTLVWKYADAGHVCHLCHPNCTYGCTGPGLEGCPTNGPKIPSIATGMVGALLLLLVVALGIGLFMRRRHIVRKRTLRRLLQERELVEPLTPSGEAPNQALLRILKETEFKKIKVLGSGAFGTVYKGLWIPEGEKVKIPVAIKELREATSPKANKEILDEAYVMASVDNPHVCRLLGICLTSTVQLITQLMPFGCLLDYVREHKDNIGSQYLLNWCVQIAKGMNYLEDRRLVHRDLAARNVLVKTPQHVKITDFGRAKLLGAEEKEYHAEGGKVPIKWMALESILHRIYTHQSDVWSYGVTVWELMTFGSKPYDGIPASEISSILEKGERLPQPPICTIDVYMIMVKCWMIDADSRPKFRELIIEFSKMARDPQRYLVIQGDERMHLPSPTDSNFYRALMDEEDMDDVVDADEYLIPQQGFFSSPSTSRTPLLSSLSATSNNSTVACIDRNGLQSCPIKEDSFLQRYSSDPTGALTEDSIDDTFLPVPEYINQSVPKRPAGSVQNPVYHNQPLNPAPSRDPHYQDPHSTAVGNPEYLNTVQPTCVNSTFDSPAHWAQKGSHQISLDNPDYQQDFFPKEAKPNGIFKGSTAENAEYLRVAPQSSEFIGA
T1 sequence (P00533 25-1210 T790M/C797S/L858R): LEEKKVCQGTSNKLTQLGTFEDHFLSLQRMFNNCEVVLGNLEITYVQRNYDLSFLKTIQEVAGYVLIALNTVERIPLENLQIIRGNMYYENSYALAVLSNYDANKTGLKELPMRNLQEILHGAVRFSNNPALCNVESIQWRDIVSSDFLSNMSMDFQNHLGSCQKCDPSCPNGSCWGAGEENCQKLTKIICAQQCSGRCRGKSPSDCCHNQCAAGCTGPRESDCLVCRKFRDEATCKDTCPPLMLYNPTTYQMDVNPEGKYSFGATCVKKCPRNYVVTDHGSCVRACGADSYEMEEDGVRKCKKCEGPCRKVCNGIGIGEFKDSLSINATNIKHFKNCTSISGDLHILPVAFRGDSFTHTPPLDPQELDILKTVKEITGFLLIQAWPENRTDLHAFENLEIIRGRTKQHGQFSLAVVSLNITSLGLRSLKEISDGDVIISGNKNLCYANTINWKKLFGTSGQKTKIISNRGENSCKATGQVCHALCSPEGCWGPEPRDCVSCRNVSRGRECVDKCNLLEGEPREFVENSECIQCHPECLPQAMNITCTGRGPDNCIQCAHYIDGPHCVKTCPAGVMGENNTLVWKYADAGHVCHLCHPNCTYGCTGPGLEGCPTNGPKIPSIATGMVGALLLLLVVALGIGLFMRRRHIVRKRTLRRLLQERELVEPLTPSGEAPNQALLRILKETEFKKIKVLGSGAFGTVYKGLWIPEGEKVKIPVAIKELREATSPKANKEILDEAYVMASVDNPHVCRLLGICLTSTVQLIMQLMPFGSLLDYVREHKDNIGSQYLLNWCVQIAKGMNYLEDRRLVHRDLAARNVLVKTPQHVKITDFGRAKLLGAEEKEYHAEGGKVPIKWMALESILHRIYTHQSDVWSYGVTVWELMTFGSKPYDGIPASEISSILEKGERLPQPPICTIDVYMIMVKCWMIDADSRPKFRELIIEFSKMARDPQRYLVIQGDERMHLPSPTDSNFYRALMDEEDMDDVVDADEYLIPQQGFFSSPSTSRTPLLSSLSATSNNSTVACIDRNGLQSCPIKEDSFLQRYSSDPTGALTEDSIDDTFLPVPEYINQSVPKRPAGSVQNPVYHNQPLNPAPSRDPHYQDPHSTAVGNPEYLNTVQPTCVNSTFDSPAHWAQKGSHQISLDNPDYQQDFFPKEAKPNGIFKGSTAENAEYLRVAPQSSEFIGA

SMILES	DC50 (EGFR L858R-T790M-C797S) [nM]	DC50 (EGFR L858R; Table 9B) [nM]	DC50 (EGFR L858R-T790M; Table 9B) [nM]	DC50 (EGFR L858R; Table 9A) [nM]	DC50 (EGFR L858R-T790M; Table 9A) [nM]
C[C@@H]1CC(O)(CC(=O)N2CC3(C2)CN(c2ccc(-c4cc(F)c5cn(C(C(=O)Nc6nccs6)c6ncn7c6CCC7)nc5c4)cc2)C3)C[C@H](C)N1c1ccc(NC2CCC(=O)NC2=O)cc1F (stereo partly drawn) [Compound 148, 2-(6,7-dihydro-5H-pyrrolo[1,2-c]imidazol-1-yl)-2-[6-[4-[2-[2-[(2s,6r)-1-[4-[(2,6-dioxo-3-piperidyl)amino]-2-fluoro-phenyl]-4-hydroxy-2,6-dimethyl-4-piperidyl]acetyl]-2,6-diazaspiro[3.3]heptan-6-yl]phenyl]-4-fluoro-indazol-2-yl]-N-thiazol-2-yl-acetamide]	< 50	–	–	–	–
O=C1CCC(Nc2cc(F)c(N3CCC(O)(CC(=O)N4CC5(C4)CN(c4ccc(-c6cc(F)c7c(c6)C(=O)N(C(C(=O)Nc6nccs6)c6ncn8c6CCC8)C7)cc4)C5)CC3)c(F)c2)C(=O)N1 (stereo not drawn) [Compound 103, 2-(6,7-dihydro-5H-pyrrolo[1,2-c]imidazol-1-yl)-2-[6-[4-[2-[2-[1-[4-[(2,6-dioxo-3-piperidyl)-amino]-2,6-difluoro-phenyl]-4-hydroxy-4-piperidyl]acetyl]-2,6-diazaspiro[3.3]hept-an-6-yl]-phenyl]-4-fluoro-1-oxo-isoindolin-2-yl]-N-thiazol-2-yl-acetamide]	–	< 50	< 50	–	–
Cn1nc(N2CCC(=O)NC2=O)c2ccc(C3CCN(CC(=O)N4CC5(C4)CN(c4ccc(-c6cc(F)c7c(c6)C(=O)N(C(C(=O)Nc6nccs6)c6ncn8c6CCC8)C7)cc4)C5)CC3)cc21 (stereo not drawn) [Compound 49, 2-(6,7-dihydro-5H-pyrrolo[1,2-c]imidazol-1-yl)-2-[6-[4-[2-[2-[4-[3-(2,4-dioxohexahydropyrimidin-1-yl)-1-methyl-indazol-6-yl]-1-piperidyl]acetyl]-2,6-diazaspiro[3.3]heptan-6-yl]phenyl]-4-fluoro-1-oxo-isoindolin-2-yl]-N-thiazol-2-yl-acetamide]	–	–	–	< 50	< 50
Cn1nc(N2CCC(=O)NC2=O)c2ccc(C3CCN(CC(=O)N4CCN(c5ccc(-c6cc(F)c7cn(C(C(=O)Nc8nccs8)c8ncn9c8CCC9)nc7c6)cn5)CC4)CC3)cc21 (stereo not drawn) [Compound 67, 2-(6,7-dihydro-5H-pyrrolo[1,2-c]imidazol-1-yl)-2-[6-[6-[4-[2-[4-[3-(2,4-dioxohexahydropyrimidin-1-yl)-1-methyl-indazol-6-yl]-1-piperidyl]acetyl]piperazin-1-yl]-3-pyridyl]-4-fluoro-indazol-2-yl]-N-thiazol-2-yl-acetamide]	–	–	–	50 to 150	< 50
O=C1CCC(Nc2ccc(C3CCN(C(=O)C(=O)N4CCC(Oc5ccc(-c6cc(F)c7c(c6)C(=O)N(C(C(=O)Nc6nccs6)c6ncn8c6CCC8)C7)cc5)CC4)CC3)cc2)C(=O)N1 (stereo not drawn) [Compound 40, 2-(6,7-dihydro-5H-pyrrolo[1,2-c]imidazol-1-yl)-2-[6-[4-[[1-[2-[4-[4-[(2,6-dioxo-3-piperidyl)amino]phenyl]-1-piperidyl]-2-oxo-acetyl]-4-piperidyl]oxy]phenyl]-4-fluoro-1-oxo-isoindolin-2-yl]-N-thiazol-2-yl-acetamide]	–	–	–	< 50	< 50
O=C1CC[C@H](Nc2ccc(C3CCN(CC(=O)N4CCC(n5cc(-c6cc(F)c7c(c6)C(=O)N(C(C(=O)Nc6nccs6)c6ncn8c6CCC8)C7)nn5)CC4)CC3)cc2)C(=O)N1 (stereo partly drawn) [Compound 30, 2-(6,7-Dihydro-5H-pyrrolo[1,2-c]imidazol-1-yl)-2-(6-(1-(1-(2-(4-(4-(((S)-2,6-dioxopiperidin-3-yl)amino)phenyl)piperidin-1-yl)acetyl)piperidin-4-yl)-1H-1,2,3-triazol-4-yl)-4-fluoro-1-oxoisoindolin-2-yl)-N-(thiazol-2-yl)acetamide]	–	–	–	< 50	< 50
O=C1CCN(c2ccc(N3CCC(O)(CC(=O)N4CC5(C4)CN(c4ccc(-c6cc(F)c7cn(C(C(=O)Nc8nccs8)c8ncn9c8CCC9)nc7c6)cc4)C5)CC3)c(F)c2)C(=O)N1 (stereo not drawn) [Compound 147]	< 50	–	–	–	–

Now from value to molecule:

DC50 (EGFR L858R-T790M-C797S) [nM]	DC50 (EGFR L858R; Table 9B) [nM]	DC50 (EGFR L858R-T790M; Table 9B) [nM]	DC50 (EGFR L858R; Table 9A) [nM]	DC50 (EGFR L858R-T790M; Table 9A) [nM]	SMILES
< 50	–	–	–	–	O=C1CC[C@H](Nc2ccc(C3CCN(C(=O)CC4(O)CCN(c5ccc(-c6cc(F)c7cn(C(C(=O)Nc8nccs8)c8ncn9c8CCC9)nc7c6)cn5)CC4)CC3)c(F)c2)C(=O)N1 (stereo partly drawn) [Compound 150, 2-(6,7-dihydro-5H-pyrrolo[1,2-c]imidazol-1-yl)-2-[6-[6-[4-[2-[4-[4-[[(3S)-2,6-dioxo-3-piperidyl]amino]-2-fluoro-phenyl]-1-piperidyl]-2-oxo-ethyl]-4-hydroxy-1-piperidyl]-3-pyridyl]-4-fluoro-indazol-2-yl]-N-thiazol-2-yl-acetamide]
< 50	–	–	–	–	O=C1CC[C@H](Nc2ccc(C3CCN(C(=O)CC4(O)CCN(c5ccc(-c6ccc7cn(C(C(=O)Nc8nccs8)c8ncn9c8CCC9)nc7c6F)cc5)CC4)CC3)c(F)c2)C(=O)N1 (stereo partly drawn) [Compound 149, 2-(6,7-dihydro-5H-pyrrolo[1,2-c]imidazol-1-yl)-2-[6-[4-[4-[2-[4-[4-[[(3S)-2,6-dioxo-3-piperidyl]amino]-2-fluoro-phenyl]-1-piperidyl]-2-oxo-ethyl]-4-hydroxy-1-piperidyl]phenyl]-7-fluoro-indazol-2-yl]-N-thiazol-2-yl-acetamide]
< 50	–	–	–	–	O=C1CC[C@H](Nc2ccc(C3CCN(C(=O)CC4(O)CCN(c5ccc(-c6ccc7cn(C(C(=O)Nc8nccs8)c8ncn9c8CCC9)nc7c6F)cn5)CC4)CC3)c(F)c2)C(=O)N1 (stereo partly drawn) [Compound 151, 2-(6,7-dihydro-5H-pyrrolo[1,2-c]imidazol-1-yl)-2-[6-[6-[4-[2-[4-[4-[[(3S)-2,6-dioxo-3-piperidyl]amino]-2-fluoro-phenyl]-1-piperidyl]-2-oxo-ethyl]-4-hydroxy-1-piperidyl]-3-pyridyl]-7-fluoro-indazol-2-yl]-N-thiazol-2-yl-acetamide]
–	< 50	< 50	–	–	O=C1CCC(Nc2ccc(C3CCN(C(=O)CN4CCN(c5ccc(-c6cc(F)c7c(c6)C(=O)N(C(C(=O)Nc6nccs6)c6ncn8c6CCC8)C7)cc5)CC4)CC3)cc2)C(=O)N1 (stereo not drawn) [Compound 178, 2-(6,7-dihydro-5H-pyrrolo[1,2-c]imidazol-1-yl)-2-(6-(4-(4-(2-(4-(4-((2,6-dioxopiperidin-3-yl)amino)phenyl)piperidin-1-yl)-2-oxoethyl)piperazin-1-yl)phenyl)-4-fluoro-1-oxoisoindolin-2-yl)-N-(thiazol-2-yl)acetamide]
–	< 50	< 50	–	–	O=C1CC[C@@H](Nc2ccc(C3CCN(CC(=O)N4CCN(c5ccc(-c6cc(F)c7c(c6)C(=O)N(C(C(=O)Nc6nccs6)c6ncn8c6CCC8)C7)cc5)CC4)CC3)cc2)C(=O)N1 (stereo partly drawn) [Compound 175, 2-(6,7-dihydro-5H-pyrrolo[1,2-c]imidazol-1-yl)-2-[6-[4-[4-[2-[4-[4-[[(3R)-2,6-dioxo-3-piperidyl]amino]phenyl]-1-piperidyl]acetyl]piperazin-1-yl]phenyl]-4-fluoro-1-oxo-isoindolin-2-yl]-N-thiazol-2-yl-acetamide]
–	< 50	< 50	–	–	O=C1CCC(Nc2ccc(C3CCN(CC(=O)N4CCN(c5ccc(-c6cc(F)c7c(c6)C(=O)N(C(C(=O)Nc6nccs6)c6ncn8c6CCC8)C7)cc5)CC4)CC3)c(F)c2)C(=O)N1 (stereo not drawn) [Compound 180, 2-(6,7-dihydro-5H-pyrrolo[1,2-c]imidazol-1-yl)-2-[6-[4-[4-[2-[4-[4-[(2,6-dioxo-3-piperidyl)amino]-2-fluoro-phenyl]-1-piperidyl]acetyl]piperazin-1-yl]phenyl]-4-fluoro-1-oxo-isoindolin-2-yl]-N-thiazol-2-yl-acetamide]
